Consider 2 compounds from patent US20100184809A1, “Heterocyclic FXR Binding Compounds” (PHENEX PHARMACEUTICALS AG, priority 2006, published 2010).

Values after ≈ are worked out from the molar mass of the structure shown. Where two headings read alike, the source gives them in different places.

The nature of data set [1]: Aqueous solubility assay, Protocol A, nephelometry method. The data set is classed as physicochemical. The note with it: PBS with 5% DMSO, aqueous with cosolvent or surfactant or cyclodextrin, kinetic from dmso stock, PBS pH 7.4, 5% DMSO. Here is the method:
Aqueous solubility of compounds was determined by nephelometry or by the shake-flask method as follows:
Protocol A, nephelometry method:
Solubility of compounds was measured in PBS (pH 7.4), 5% DMSO at 23° C. Nepheloskan Ascent (Thermo Electron Corporation) nephelometer was used for measurement of light scattering. Tested compounds were dissolved in DMSO to 10 mM. Prior to measurement the compounds were further diluted with PBS in the wells to final compound concentrations of 100, 70, 50, 35, 25, 17, 12 and <10 μg/ml.
The plates were incubated at room temperature for 24 hours to reach equilibrium and the scattered light was measured. Assay validation: Aqueous solubility of acetylsalicylic acid was determined to validate the assay.
The following compounds of Table 2 exemplify such solubility with “−−” meaning solubility<2 μM, “+” meaning 2 μM solubility 100 μM and “++” meaning solubility

Data set [2] can be described thus: Aqueous solubility assay, Protocol B, shake-flask method. The note with it: aqueous buffer, 10 mM PBS buffer pH 7.4, 1% MeOH, room temperature, read-out: Aqueous solubility pH 7.4 (μM) (±standard deviation), shake-flask method. The data set is classed as physicochemical. Here is the method:
Protocol B, shake-flask method:
Sample preparation: Sample and standard solution preparation is performed by mixing equal volumes of acetonitrile containing the internal standard (1 μM final concentration) with sample and calibration standard solutions (100 μl). After vigorously shaking (10 seconds) the samples are centrifuged (6000 g) for 5 minutes at 20° C. Aliquots of the particle-free supernatants are transferred to 200 μl sample vials and subsequently subjected to LC-MS/MS. Assay procedure: Test concentration was 100 μM in 10 mM PBS buffer pH 7.4 with a final MeOH concentration of 1%. The volume of the incubation solution was 500 μl. Depending on each compound's solubility in MeOH, the stock concentration and the incubation concentration was adapted. The test solutions in quadruplicates were shaken at 300 rpm over a 20 hours period at room temperature, followed by centrifugation at 20000 g for 30 minutes to separate the solid phase. 100 μl of particle free sample are added to 100 μl acetonitrile containing the internal standard. The aqueous solubility of the compounds was determined by measuring the concentration of the PBS buffer supernatant by HPLC-MS/MS.

A further data set in a line: PAMPA permeability assay. The note with it: % of compound found in the receiver compartment after 16 hours; PBS pH 7.4, 5% DMSO, 23° C. It counts as in vitro ADME. The procedure: Artificial membrane permeability was determined as follows: Tested compounds were dissolved to 10 mM in 100% DMSO. Permeability of compounds was measured in PBS (pH 7.4), 5% DMSO at 23° C. Safire (Tecan) plate reader was used for measurement the UV/Vis absorption. Protocol: Dilute stocks of tested compounds and controls with PBS to 1.67 mM and mix well by pipeitting, add 280 μl of PBS, 5% DMSO to acceptor plate, add 5 μl of 2% L-α-Phosphatidylcholine suspension in dodecane to the membrane of donor plate, Immediately add 98 μl of PBS to donor plate and make the sandwich with acceptor plate. Add 42 μl of tested compounds and controls dilutions to […], cover the plate, place into camera and incubate for 16 hours. Make the equilibrium plate, add 225 μl of PBS, 3,7% DMSO and 25 μl of tested compounds and controls dilutions to UV plate. After 16 hours pull the donor plate out and transfer 250 μl from acceptor plate to UV plate. Scan UV plate on Safire (Tecan) plate reader from […]. Permeability is reported in % of compound found in the receiver compartment after the incubation period.
In general terms: The PAMPA barrier holds no transporters, so it reflects passive diffusion.

Data set [3] can be described thus: Mouse microsomal stability assay. The data set is classed as in vitro ADME. The note with it: pH 7.4; mouse liver microsomes, 37° C. The procedure:
In vitro assays were performed to evaluate the metabolic stability of test items in liver microsomes originating from mouse. Preparation of working standards of test items: Working solutions were prepared for each calibration level by appropriate dilution of the corresponding stock solution, depending on each compound's solubility in acetonitrile or acetonitrile/water. Calibration standards were prepared by spiking 196 μl standard matrix with 4 μl of the corresponding working solution. The standard matrix consists of 0.15 mg/ml of microsomal protein in phosphate buffer (100 mM pH 7.4), the final standard solutions contain 2% acetonitrile. The samples and standard solutions were extracted with ethyl acetate, isolation of the compounds was performed by addition of 600 μl ethyl acetate containing the internal standard (0.1 μM) to 200 μl sample and calibration standard. After vigorously shaking (10 minutes) and centrifugation (5000 g) the aqueous phase was separated by freezing in an acetone/dry ice bath and the organic phase is evaporated to dryness using a vacuum centrifuge. Samples were reconstituted in 200 μl acetonitrile/water mix (1:1 v/v) and subsequently subjected to LC-MS/MS. The incubation solution (180 μl) consisted of 90 μl of a microsomal suspension of 0.33 mg/ml of protein in phosphate buffer 100 mM pH 7.4 and 90 μl NADP-regenerating system. The reaction was initiated by the addition of 20 μl of test compound (in 20% acetonitrile) to the preincubated microsomes/buffer mix at 37° C. 200 μl samples were removed from the incubation after 0, 5, 10, and 30 minutes and processed for ethyl acetate extraction as described above. Negative controls using boiled microsomes (boiling water bath, 25 minutes) without regenerating system were run in parallel. The amount of compound in the samples is expressed as percentage of remaining compound compared to time point zero (=100%). These percentages were plotted against the corresponding time points. Intrinsic clearance (CLint) and half-life (t1/2) estimates were determined using the rate of parent disappearance and following formula (1) and (2). (1) CLint=(−k)×V×fu. (2) t1/2=In2/−k. Where CLint=intrinsic clearance [μl/min/mg protein], t1/2=half life [min], k=slope from the linear regression of log [test compound] versus time plot [1/min]. V=6666.7; fu=unbound fraction in the blood. Applying this protocol gave microsomal stabilities for examples and reference compounds as listed below in Table 9: […]
On the technique in general: Liver microsomes are vesicles of endoplasmic reticulum, rich in cytochrome P450 enzymes.

For data set [4] the following is noted: The Merck index, 10th edition; cited from earlier work.

For orientation: solubility means the concentration that dissolves in the medium under given conditions. As a reminder, the half-life is the time needed for the level to fall by half in the phase considered. In general, microsomal CLint refers to a measure of how fast metabolising enzymes remove a compound, apart from limits set by blood flow. Low readings indicate greater metabolic stability, high ones faster metabolism.

In the case of `CC(C)c1onc(-c2c(Cl)cccc2Cl)c1CCc1ccc(Oc2ccc(C(=O)O)cc2)cc1` [Compound A, reference compound], in data set [1] (23° C., 24 hours, read-out: Aqueous solubility pH 7.4), the solubility at 24 h lay within 2 to 100 µM. The solubility at 20 h in data set [2] was found to be 72.4 µM (≈ 35.9 µg/mL). Besides, the “PAMPA Permeability” value in the data set “PAMPA permeability assay” is recorded as 32%. Besides, in data set [3], the half-life stood at 22 min and the microsomal CLint stood at 207 µL/min/mg.
In the case of `CC(=O)Oc1ccccc1C(=O)O` [acetylsalicylic acid, reference compound], the solubility at 24 h in data set [1] (23 °C, at the day of experiment, read-out: Aqueous solubility (assay validation)) was greater than 100 µg/mL. The “Aqueous solubility, reported literature value” in data set [4] is reported as “at least 2,17 mg/ml”.
